No end group written: not given here. *: point of attachment. Biotin = O=C1N[C@H]2[C@H](CS[C@H]2CCCCC(=O)*)N1
Legend:
[1] = tested on: B box-induced DC maturation; assay: Signalling inhibitors on B box-induced CD83 upregulation and IL-6 secretion in DCs; assay type: cell-based, human; details: 30 min preincubation, then rB box 100 μg/ml, 48 h; SB203580 5 or 20 μM, PD98059 and TPCK 20 or 80 μM
Procedure: FIG. 6. B box causes […] upregulation and IL-6 secretion via a p38 dependent pathway. Immature d7 DCs were preincubated for 30 min with (i) DMSO, (ii) PD98059 at 20 (P20) or 80 (P80) μM, (iii) SB203580 at 5 (S5) or 20 (S20) μM, (iv) TPCK at 20 (T20) or 80 (T80) μM and then treated with rB box (100 μg/ml), or cultured with DMSO in the absence of B box (medium). 48 h after activation the DCs were assayed for the surface expression of CD83 by FACS and IL-6 secretion was measured by ELISA. The results shown are mean+/−SEM of three independent experiments using DCs generated from different donors.
The p38 MAPK-specific inhibitor, SB203580, a pyridinyl imidazole compound, the MEK inhibitor PD98059, and N-tosyl-L-phenylalanine chloromethyl ketone (TPCK) were purchased from Sigma. Because these required solubilization in DMSO, DMSO was used as a negative control.
To obtain insight into the roles of ERK and p38 MAPK pathways in B box-induced DC maturation, we used their specific inhibitors, PD98059 and SB203580, respectively. To analyze the role of NF-κB we used TPCK, a serine protease inhibitor that blocks nuclear translocation of Rel/NF-κB by preventing IκB degradation.

murine BM-DCs [2] = assay: Cytokine and chemokine secretion by murine bone marrow-derived DCs (ELISA); assay type: cell-based, mouse; design: key to TNFα / IL-18 / IL-8 / IL-10 / IL-2 / IL-1β / IL-5 / IL-6 / IL-12: + indicates increase; − indicates no change compared to medium
Procedure: (§1) Bone marrow-derived DCs (BM-DC) were generated using modifications of the original method described by Inaba et al (42). In brief, bone marrow suspensions were incubated with red cell lysis buffer (PUREGENE™ RBC Lysis Solution, Gentra Systems, Minneapolis, Minn.) to remove red blood cells. After washing in media, lymphocytes and Ia-positive cells were killed with a cocktail of mAbs and rabbit complement for 60 min at 37° C. The mAbs were GK1.5 anti-CD4, TIB211 anti-CD8, TIB 120 anti-Ia, and TM 146 anti B220 (The Abs were kindly provided by Dr. Ralph Steinman). The cells were subsequently cultured in media containing 5% FCS and 10 ng/ml recombinant mouse GM-CSF (R&D Systems; Minneapolis, Minn.) for 7 days. For some experiments the cells were further purified at day 7 using CD11c^+-microbeads (Miltenyi Biotech., Auburn, Calif.) according to the manufacturer's instructions.
(§2) At day 7 of culture, immature DCs were either left untreated, or were stimulated with indicated doses of HMGB1-Bx, HMGB1 peptides, or LPS (E. coli serotype 026:B6, Sigma). In all experiments, DCs were analyzed 48 h after stimulation.
(§3) 48 h post activation, the production of cytokines and chemokines in cell culture supernatants was measured by ELISA (Pierce Boston Technology Center, SearchLight™ Proteome Arrays Multiplex Sample Testing Services, Woburn, Mass.).

murine BM-DCs [3] = assay: Phenotypic maturation of murine BM-DCs (surface markers, FACS); assay type: cell-based, mouse; details: CD11c+ gated BM-DCs, 48 h; HMGB1-Bx 50 μg/ml, peptides 200 μg/ml
Procedure: as §1, §2
1×10^4 DCs were reacted for at least 20 min at 4° C. in 100 μl of PBS/5% FCS/0.1% sodium azide (staining buffer) with fluorescein isothiocyanate (FITC)-conjugated IgG mAb specific for CD86, CD40 and MHC-II (eBioscience). Cells were then washed 4 times with staining buffer, fixed in 10% formaldehyde in PBS (pH 7.2-7.4) and examined by flow cytometry using a FACScan (BD). In all experiments, isotype controls were included using FITC-conjugated irrelevant mAb of the same Ig class.

[4] = tested on: human monocyte-derived DCs; assay: Cytokine and chemokine secretion by human immature monocyte-derived DCs (ELISA); assay type: cell-based; design: key to TNFα / IL-18 / IL-8 / IL-10 / IL-6 / IL-12: + indicates increase; − indicates no change compared to medium
Procedure: (§4) PBMCs were isolated from the blood of normal volunteers (Long Island Blood Services, Melville, N.Y.) over a Ficoll-Hypaque (Amersham Biosciences, Uppsala, Sweden) density gradient. CD14^+ monocytes were isolated from PBMCs by positive selection using anti-CD14 beads (Miltenyi Biotech., Auburn, Calif.) following the manufacturer's instructions. To generate DCs, CD14^+ cells were cultured in RPMI 1640 medium supplemented with 2 mM L-glutamine (GIBCO-BRL Life Technologies; Grand Island, N.Y.), 50 μM 2-mercaptoethanol (Sigma, St. Louis, Mo.), 10 mM HEPES (GIBCO-BRL), penicillin (100 U/ml)-streptomycin (100 μg/ml) (GIBCO-BRL), and 5% human AB serum (Gemini Bio-Products, Woodland, Calif.). Cultures were maintained for 7 days in 6-well trays (3×10^6 cells/well) supplemented with 1000 U GM-CSF per ml (Immunex, Seattle, Wash.) and 200 U IL-4 per ml (R&D Systems; Minneapolis, Minn.) at days 0, 2, 4 and 6.
At day 7 of culture, immature DCs were either left untreated (“immature”, IM), or were stimulated with indicated doses of (i) LPS (E. coli serotype 026:B6, Sigma), (ii) 500 ng/ml of trimeric CD40L (Alexis Biochemicals; San Diego, Calif.), (iii) a cocktail of cytokines (CyC) consisting of IL-6 at 1000 U/ml, TNFα at 10 ng/ml, IL-1β at 10 ng/ml (all from R&D Systems) and prostaglandin E2 (PGE-2) at 1 μg/ml (Sigma), or with (v) non-methylated CpG oligonucleotides (5′ […] 3′) at 30 μg/ml. The sequence of this oligonucleotide is known to induce DC maturation (4), except that it contains an unmodified phosphodiester backbone. In all experiments, DCs were analyzed 48 h after stimulation. All experiments using the rB box were performed in the presence of polymyxin B sufficient to neutralize greater than 10-fold more LPS than present in rB box preparations.
as §3
as §4, with “DCs, CD 14^+” for “DCs, CD14^+”
as §2

allogeneic T cells = assay: Mixed leukocyte reaction, stimulated murine BM-DCs with allogeneic T cells; assay type: cell-based, mouse; details: BM-DCs from C57/BL6 mice; HMGB1-Bx 50 μg/ml, peptides 200 μg/ml, 48 h; 5-day co-culture
Procedure: T cells were isolated by negative selection using the mouse SpinSep antibody cocktail from StemCell Technologies (Vancouver, Calif.) according to the manufacturer's instructions. The cell purity of the isolated T cells was routinely ˜99% pure.
To assess levels of T cell activation and proliferation, cells were plated at 10^5 cells per well in a round-bottomed 96-well tray at DC:T cell ratios of 1:120 for 5 days in medium described above. The microcultures were pulsed with (^3H)-thymidine (1 μCi/well) for the final 8 h of culture. Cell cultures were harvested onto glass fiber filters with an automated multiple sample harvester and the amount of isotope incorporation was determined by liquid scintillation β-emission. Responses are reported as mean cpm of thymidine incorporation by triplicate cultures (+/−SEM).

[5] = Murine DC, ELISA 48 h after exposure, compared to medium
[6] = peptides 200 μg/ml, HMGB1-Bx 50 μg/ml, polymyxin B, 48 h
[7] = HUMAN DC, ELISA 48 h after exposure, compared to medium

## C[S+]([O-])c1ccc(-c2nc(-c3ccncc3)c(-c3ccc(F)cc3)[nH]2)cc1 (stereo not shown) [SB203580]
[1]
  B box induced secretion of IL-6: downregulated
  B box-induced upregulation of CD83: completely abrogated

## YAFFVQTCREEHKKKHPD (Biotin-YAFFVQTCREEHKKKHPD; listed as Homo sapiens) [Hp-16]
Murine BM-DCs [2]; [5]
  IL-1β: +
  IL-2: +
  IL-5: +
  IL-6: −
  IL-8: −
  IL-10: −
  IL-12: +
  IL-18: +
  TNFα: −
Murine BM-DCs [2]; peptides 200 μg/ml, 48 h
  activation of murine BM-DCs: activated
Murine BM-DCs [2]; [6]
  secretion of IL-2: enhanced secretion
  secretion of IL-5: enhanced secretion
  secretion of IL-12 (p70): enhanced secretion
  secretion of IL-18: enhanced secretion
Murine BM-DCs [2]; peptides 200 μg/ml, polymyxin B, 48 h
  secretion of IL-10: enhanced secretion
Murine BM-DCs [3]
  CD40 expression: strong upregulation
  CD86 expression: strong upregulation
  MHC-II expression: strong upregulation
[4]; Example 2, peptides 200 μg/ml, 48 h
  activation of human DCs: no effect
[4]; [7]
  IL-6: −
  IL-8: −
  IL-10: −
  IL-12: −
  IL-18: −
  TNFα: −
Allogeneic T cells
  T cell stimulatory activity of exposed BM-DCs in mixed lymphocyte reaction: activated resting allogeneic T cells
